Source: US7745422B2, “Bisphosphonate compounds and methods for bone resorption diseases, cancer, bone pain, immune disorders, and infectious diseases” (The Board of Trustees of the University of Illinois, priority 2004, dated 2010)
Read-outs that look alike come from different tables or passages of the source.

Key:
Dictyostelium discoideum = test: D. discoideum cell growth inhibition; type: cell-based
Text: (§1) We then investigated the activity of each compound in inhibiting the FPPS from L. major, in Dictyostelium discoideum growth inhibition and in γδ T cell activation. We used the FPPS from L. major since this enzyme is the putative bisphosphonate target in several trypanosomatid species.

Vγ2Vδ2 T cells = test: gammadelta T cell stimulation (TNF-α release assay); type: cell-based, human
Text: as §1

[1] = Table 4, read-out: (1) D. discoideum IC50
[2] = Table 4, read-out: (3) gammadelta T cell stimulation EC50
[3] = cell growth inhibition, Table 1 and text, read-out: D. discoideum IC50
[4] = TNF-α release, Table 1 and text, read-out: gammadelta T cell stimulation, EC50
[5] = Table 3, additional testing, read-out: gammadelta T cell stimulation EC50

In the case of `CC([n+]1ccccc1)C(O)(P(=O)([O-])O)P(=O)(O)O` (single isomer, unassigned) [Compound 583], the IC50 (Dictyostelium discoideum; [1]) is reported as 14 µM and the EC50 (Vγ2Vδ2 T cells; [2]) is reported as 50 µM.

`O=P([O-])(O)C(O)(C[n+]1ccc2ccccc2c1)P(=O)(O)O` (stereo not shown) [Compound 398] showed an IC50 (Dictyostelium discoideum; [1]) of 20 µM, an IC50 (Dictyostelium discoideum; [3]) of 20 µM and an EC50 (Vγ2Vδ2 T cells; [4]) of 41 µM. For the same compound, the EC50 (Vγ2Vδ2 T cells; [5]) was 40.6 µM and the EC50 (Vγ2Vδ2 T cells; [2]) was 41 µM.

`O=P([O-])(O)C(O)(C[n+]1ccc(Cc2ccccc2)cc1)P(=O)(O)O` (stereo not shown) [Compound 443] was tested, and the IC50 (Dictyostelium discoideum; [1]) was 12 µM, the IC50 (Dictyostelium discoideum; [3]) was 12 µM and the “activity in gammadelta T cell stimulation” value (Vγ2Vδ2 T cells; TNF-α release) was “poor activity”. For the same compound, the EC50 (Vγ2Vδ2 T cells; [4]) was 230 µM, the EC50 (Vγ2Vδ2 T cells; [5]) was 187 µM and the EC50 (Vγ2Vδ2 T cells; [2]) was 230 µM.

Compound `CCc1ccc[n+](CC(O)(P(=O)([O-])O)P(=O)(O)O)c1` (stereo not shown) [Compound 444] has an IC50 (Dictyostelium discoideum; [1]) of 5.6 µM, an IC50 (Dictyostelium discoideum; [3]) of 5.6 µM and an EC50 (Vγ2Vδ2 T cells; [4]) of 5.1 µM. It also gave an EC50 (Vγ2Vδ2 T cells; [5]) of 2.8 µM and an EC50 (Vγ2Vδ2 T cells; [2]) of 5.1 µM.

`O=P([O-])(O)C(O)(C[n+]1cccc2cc(Cl)ccc21)P(=O)(O)O` (stereo not shown) [Compound 447] gave an IC50 (Dictyostelium discoideum; [1]) of 72 µM, an IC50 (Dictyostelium discoideum; [3]) of 72 µM and an EC50 (Vγ2Vδ2 T cells; [4]) of 53 µM. The EC50 (Vγ2Vδ2 T cells; [2]) was 53 µM.

`O=P([O-])(O)C(O)(C[n+]1cccc(-c2ccc(C(F)(F)F)cc2)c1)P(=O)(O)O` (stereo not shown) [Compound 449] was tested, and the IC50 (Dictyostelium discoideum; [1]) was 4 µM and the EC50 (Vγ2Vδ2 T cells; [2]) was 12 µM.

In the case of `Cc1ccc2c(ccc[n+]2CC(O)(P(=O)([O-])O)P(=O)(O)O)c1` (stereo not shown) [Compound 452], the IC50 (Dictyostelium discoideum; [1]) is reported as 73 µM and the EC50 (Vγ2Vδ2 T cells; [2]) is reported as 250 µM.

`O=P([O-])(O)C(O)(CC[n+]1ccccc1)P(=O)(O)O` (stereo not shown) [Compound 455] gave an IC50 (Dictyostelium discoideum; [1]) of 27 µM and an EC50 (Vγ2Vδ2 T cells; [2]) of 25 µM.

For `COc1cc[n+](CC(O)(P(=O)([O-])O)P(=O)(O)O)cc1` (stereo not shown) [Compound 456], the IC50 (Dictyostelium discoideum; [1]) was 27 µM and the EC50 (Vγ2Vδ2 T cells; [2]) was 19 µM.

`Cc1ccc2ccc[n+](CC(O)(P(=O)([O-])O)P(=O)(O)O)c2c1` (stereo not shown) [Compound 457] showed an IC50 (Dictyostelium discoideum; [1]) of 14 µM and an EC50 (Vγ2Vδ2 T cells; [2]) of 1900 µM.

`Cc1cc(C)c[n+](CC(O)(P(=O)([O-])O)P(=O)(O)O)c1` (stereo not shown) [Compound 459] was tested, and the IC50 (Dictyostelium discoideum; [1]) was 27 µM and the EC50 (Vγ2Vδ2 T cells; [2]) was 14 µM.

Compound `Cc1cc[n+](CC(O)(P(=O)([O-])O)P(=O)(O)O)cc1C` (stereo not shown) [Compound 460] has an IC50 (Dictyostelium discoideum; [1]) of 14 µM and an EC50 (Vγ2Vδ2 T cells; [2]) of 13 µM.

`O=P([O-])(O)C(O)(C[n+]1cccc(-c2ccc(F)cc2)c1)P(=O)(O)O` (stereo not shown) [Compound 462] was tested, and the IC50 (Dictyostelium discoideum; [1]) was 2.7 µM and the EC50 (Vγ2Vδ2 T cells; [2]) was 15 µM.

In the case of `O=P([O-])(O)C(C[n+]1ccccc1)P(=O)(O)O` (stereo not shown) [Compound 470], the IC50 (Dictyostelium discoideum; [1]) is reported as 3.5 µM and the EC50 (Vγ2Vδ2 T cells; [5]) is reported as 3.3 µM.

For `O=P([O-])(O)C(O)(C[n+]1ccc(-c2ccncc2)cc1)P(=O)(O)O` (stereo not shown) [Compound 471], the “(1) D. discoideum IC50” value (Dictyostelium discoideum; Table 4) was “inactive” and the “(3) gammadelta T cell stimulation EC50” value (Vγ2Vδ2 T cells; Table 4) was “inactive”.

For `O=P([O-])(O)C(C[n+]1cccc(-c2ccccc2)c1)P(=O)(O)O` (stereo not shown) [Compound 472], the IC50 (Dictyostelium discoideum; [1]) was 2.5 µM and the EC50 (Vγ2Vδ2 T cells; [5]) was 2.1 µM.

Compound `O=P([O-])(O)C(C[n+]1ccc2ccccc2c1)P(=O)(O)O` (stereo not shown) [Compound 473] has an IC50 (Dictyostelium discoideum; [1]) of 20 µM and an EC50 (Vγ2Vδ2 T cells; [5]) of 20.1 µM.

Work on `Cc1ccc[n+](CC(P(=O)([O-])O)P(=O)(O)O)c1` (stereo not shown) [Compound 474] yielded an IC50 (Dictyostelium discoideum; [1]) of 4.4 µM and an EC50 (Vγ2Vδ2 T cells; [5]) of 2.4 µM.

In the case of `CCc1ccc[n+](CC(P(=O)([O-])O)P(=O)(O)O)c1` (stereo not shown) [Compound 475], the IC50 (Dictyostelium discoideum; [1]) is reported as 4.1 µM and the EC50 (Vγ2Vδ2 T cells; [5]) is reported as 2.8 µM.

Work on `CCCCc1ccc[n+](CC(P(=O)([O-])O)P(=O)(O)O)c1` (stereo not shown) [Compound 476] yielded an IC50 (Dictyostelium discoideum; [1]) of 2.3 µM and an EC50 (Vγ2Vδ2 T cells; [5]) of 2 µM.

`O=P([O-])(O)C(O)(C[n+]1ccc(-c2ccccc2)cc1)P(=O)(O)O` (stereo not shown) [Compound 478] was tested, and the IC50 (Dictyostelium discoideum; [1]) was 760 µM and the “(3) gammadelta T cell stimulation EC50” value (Vγ2Vδ2 T cells; Table 4) was “inactive”.

`COc1ccc[n+](CC(O)(P(=O)([O-])O)P(=O)(O)O)c1` (stereo not shown) [Compound 479] gave an EC50 (Vγ2Vδ2 T cells; [2]) of 15 µM.

`O=P([O-])(O)C(C[n+]1cccc(Cc2ccccc2)c1)P(=O)(O)O` (stereo not shown) [Compound 480] showed an IC50 (Dictyostelium discoideum; [1]) of 3 µM and an EC50 (Vγ2Vδ2 T cells; [5]) of 68.7 µM.

In the case of `O=P([O-])(O)C(C[n+]1cccc(-c2ccc(F)c(F)c2)c1)P(=O)(O)O` (stereo not shown) [Compound 533], the EC50 (Vγ2Vδ2 T cells; [2]) is reported as 19 µM.

For `O=P([O-])(O)C(O)(C[n+]1cc(F)cc(-c2ccccc2)c1)P(=O)(O)O` (stereo not shown) [Compound 534], the EC50 (Vγ2Vδ2 T cells; [2]) was 16 µM.

Work on `CC(C)CCc1ccc[n+](CC(P(=O)([O-])O)P(=O)(O)O)c1` (stereo not shown) [Compound 603] yielded an EC50 (Vγ2Vδ2 T cells; [2]) of 22 µM.

Compound `CCCCCCCCc1ccc[n+](CC(P(=O)([O-])O)P(=O)(O)O)c1` (stereo not shown) [Compound 605] has an EC50 (Vγ2Vδ2 T cells; [2]) of 6 µM.
